Data from patent US7504203B2 (priority 2002, dated 2009).

Molecular target: GST-fused SCDH enzyme expressed from the standard strain cDNA (Pyricularia oryzae, UniProt P56221)
Assay type: biochemical, rice blast fungus (Pyricularia oryzae)

GST-fused SCDH enzyme expressed from the standard strain cDNA, sequence (P56221 whole entry, looked up, the tested form may be a part): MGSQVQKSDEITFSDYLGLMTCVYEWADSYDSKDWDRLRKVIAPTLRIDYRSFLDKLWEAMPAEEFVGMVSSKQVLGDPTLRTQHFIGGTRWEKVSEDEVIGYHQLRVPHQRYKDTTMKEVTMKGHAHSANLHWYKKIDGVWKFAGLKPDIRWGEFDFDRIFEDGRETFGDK

**Q.** CCC1(C(=O)N[C@H](C)c2ccc(Cl)cc2)C(C)C1(Cl)Cl (stereo partly shown) [carpropamid] was tested. Which “drug sensitivity compared with SCDH enzyme in crude enzyme solution from rice blast fungus” value did it give?
**A.** exhibited the same drug sensitivity
